We go through five molecules from patent publication US20080154179A1 (priority 2005, published 2008).

Broadly, the solubility is the concentration that dissolves in the medium under given conditions. A low value points to little dissolved substance.

In one data set the target is T1, plasma cholinesterase (Homo sapiens, UniProt P06276).
T1 construct: plasma samples that were treated with quinidine (20 μM); from tissue; host or cells: plasma
Nature of the data set: Selective inhibition of cholinesterase activity in plasma samples treated with quinidine. The class given is biochemical. To be noted: quinidine 20 μM, BTC vs other substrate.

For data set [1] the following is noted: cited from earlier work; for transdermal delivery into and across human skin: literature, primaquine: simple transdermal patch, full-thickness excised human skin.
The conditions of data set [2]: blood level; cited from earlier work.
A short description of data set [3]: Stability of primaquine after exposure to iontophoresis by TLC of receptor compartment. The following applies: receptor compartment contents, silica gel, n-butanol:acetic acid:water (5:3:2).
Data set [4] in a line: In-vitro transdermal iontophoretic delivery of primaquine patch through epidermal membranes in Mattek permeation device.
The conditions of data set [5]: relative to base line; cited from earlier work.

Molecules are shown by their SMILES. Converted amounts (≈) assume the structure as drawn. “Also recorded” adds a separate entry of the source.

T1 sequence (P06276 29-602): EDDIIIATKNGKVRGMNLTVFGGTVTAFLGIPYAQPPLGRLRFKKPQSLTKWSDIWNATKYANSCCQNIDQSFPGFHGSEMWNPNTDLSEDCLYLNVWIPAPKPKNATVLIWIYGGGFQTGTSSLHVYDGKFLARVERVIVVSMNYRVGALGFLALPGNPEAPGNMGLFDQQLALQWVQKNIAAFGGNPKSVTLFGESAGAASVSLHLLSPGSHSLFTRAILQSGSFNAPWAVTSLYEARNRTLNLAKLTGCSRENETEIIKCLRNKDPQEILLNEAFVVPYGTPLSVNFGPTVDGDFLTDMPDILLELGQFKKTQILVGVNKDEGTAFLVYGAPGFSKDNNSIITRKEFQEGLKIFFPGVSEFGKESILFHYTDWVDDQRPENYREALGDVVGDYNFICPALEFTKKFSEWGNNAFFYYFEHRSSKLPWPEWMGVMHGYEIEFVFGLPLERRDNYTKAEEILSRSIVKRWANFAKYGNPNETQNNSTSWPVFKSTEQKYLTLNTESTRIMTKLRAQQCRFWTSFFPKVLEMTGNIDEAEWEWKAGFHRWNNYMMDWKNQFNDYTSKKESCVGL

`CN1CCCC1c1cccnc1` (centres unmarked) [nicotine] yielded a solubility in the data set “physchem” of 50 mg/mL (≈ 308 mM).

On to `C=C[C@H]1C[N@@]2CC[C@H]1C[C@@H]2[C@@H](O)c1ccnc2ccc(OC)cc12` [quinidine], for which, on plasma cholinesterase, the “inhibitory effect on plasma cholinesterase activity” value is on record as “the inhibitory effect was observed only when BTC was used”.

`C[C@H]1c2cccc(O)c2C(=O)C2=C(O)[C@]3(O)C(=O)C(C(N)=O)=C(O)[C@@H](N(C)C)[C@@H]3[C@@H](O)[C@@H]21` [doxycycline]: in data set [1], the “transdermal delivery into and across human skin” value is recorded as “significant amounts”.

`COc1cc(NC(C)CCCN)c2ncccc2c1` (centres unmarked) [primaquine]: the “transdermal delivery into and across human skin” value in data set [1] was “could deliver a therapeutic in vivo dose”. Also, the “share of the 10 mg dose delivered passively each hour” value in data set [1] (passive delivery, per hour) is reported as “Approximately 5%”. Also, in data set [1] (within 24 hours, to achieve therapeutic plasma concentrations), the “amount that can be delivered transdermally” value is reported as 10 mg. Besides, in data set [2], the “therapeutic dosage (level) for the treatment of malaria” value was 0.03 µg/mL. In data set [3], the “stability of the primaquine molecule after exposure to iontophoresis (TLC)” value is on record as “intact primaquine is present; also recorded: there is more than one species of molecule present”. Also, the “passive diffusion before and after iontophoresis” value in data set [4] (human epidermal membrane, no current, receptor PBS pH 7.4) is on record as “Minimal passive diffusion”. Besides, the “amount delivered using electrotransport” value in data set [4] (in 40 minutes) was 160 µg.

Consider `CC1CCC(C(C)C)C(O)C1` (centres unmarked) [menthol], for which the “increase in skin flux” value in data set [5] is “up to eight times the base line”.
